Test results published in ChEMBL document CHEMBL5537193, “Multitargeting HDAC Inhibitors Containing a RAS/RAF Protein Interfering Unit” (J Med Chem, 2024).
The source made the active and inactive calls. The rule behind the calls is not given here.

Legend:
[1] = system: A-431; assay: cells; conditions: Homo sapiens, A-431, 72 h
Description: Cytotoxicity against human A-431 cells assessed as inhibition of cell growth incubated for 72 hrs by MTT assay

[2] = system: MV4-11; assay: cells; conditions: Homo sapiens, MV4-11, 72 h
Description: Cytotoxicity against human MV4-11 cells assessed as inhibition of cell growth incubated for 72 hrs by MTT assay

[3] = system: A549; assay: cells; conditions: Homo sapiens, A549, 72 h
Description: Cytotoxicity against human A549 cells assessed as inhibition of cell growth incubated for 72 hrs by MTT assay

[4] = system: HT-29; assay: Antitumor activity against human HT-29 cells xenografted in BALB/c nude mouse assessed as tumor growth inhibition at 7.5 mg/kg, ip administered once a day for 24 days in presence of SAHA relative to control; type: functional; conditions: HT-29, 576 h, time 24 day, read-out: TGI
[5] = system: K562; assay: cells; conditions: Homo sapiens, K562, 72 h
Description: Cytotoxicity against human K562 cells assessed as inhibition of cell growth incubated for 72 hrs by MTT assay

[6] = target: Protein deacetylase HDAC6 (Homo sapiens, UniProt Q9UBN7); assay: Inhibition of HDAC6 (unknown origin)
Protein deacetylase HDAC6, sequence (Q9UBN7 whole entry): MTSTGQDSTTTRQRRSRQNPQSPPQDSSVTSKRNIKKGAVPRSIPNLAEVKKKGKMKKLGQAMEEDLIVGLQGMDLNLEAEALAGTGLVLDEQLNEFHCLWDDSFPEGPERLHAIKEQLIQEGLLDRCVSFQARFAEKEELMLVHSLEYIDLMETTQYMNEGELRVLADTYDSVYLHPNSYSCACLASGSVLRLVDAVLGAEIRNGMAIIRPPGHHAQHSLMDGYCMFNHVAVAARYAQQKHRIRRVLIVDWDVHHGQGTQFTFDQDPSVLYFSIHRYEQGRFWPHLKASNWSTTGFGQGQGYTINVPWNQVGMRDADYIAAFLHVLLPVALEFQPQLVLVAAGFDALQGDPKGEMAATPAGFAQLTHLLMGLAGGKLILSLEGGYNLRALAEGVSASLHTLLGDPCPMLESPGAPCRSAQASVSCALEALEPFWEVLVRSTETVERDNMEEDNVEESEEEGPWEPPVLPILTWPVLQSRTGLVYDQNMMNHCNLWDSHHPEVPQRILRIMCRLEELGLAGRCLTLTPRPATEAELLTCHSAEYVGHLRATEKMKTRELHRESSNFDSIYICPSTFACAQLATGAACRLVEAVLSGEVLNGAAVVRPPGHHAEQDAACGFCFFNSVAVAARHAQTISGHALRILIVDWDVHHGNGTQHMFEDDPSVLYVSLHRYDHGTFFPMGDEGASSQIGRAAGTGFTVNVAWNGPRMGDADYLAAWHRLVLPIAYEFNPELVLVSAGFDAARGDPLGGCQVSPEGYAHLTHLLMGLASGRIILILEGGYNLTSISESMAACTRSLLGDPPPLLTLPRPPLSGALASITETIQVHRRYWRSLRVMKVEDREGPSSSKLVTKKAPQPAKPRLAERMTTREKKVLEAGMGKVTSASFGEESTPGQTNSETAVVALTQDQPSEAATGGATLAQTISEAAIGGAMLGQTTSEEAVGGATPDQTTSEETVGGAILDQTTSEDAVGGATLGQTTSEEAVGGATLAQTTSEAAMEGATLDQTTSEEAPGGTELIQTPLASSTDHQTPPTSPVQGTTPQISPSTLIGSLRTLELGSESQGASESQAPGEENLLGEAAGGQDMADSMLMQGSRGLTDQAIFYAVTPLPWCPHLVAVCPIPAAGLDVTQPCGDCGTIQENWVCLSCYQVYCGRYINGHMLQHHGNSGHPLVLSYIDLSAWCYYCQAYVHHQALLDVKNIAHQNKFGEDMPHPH

[7] = system: HT-29; assay: cells; conditions: Homo sapiens, HT-29, 72 h
Description: Cytotoxicity against human HT-29 cells assessed as inhibition of cell growth incubated for 72 hrs by MTT assay

[8] = target: Histone deacetylase 11 (Homo sapiens, UniProt Q96DB2); assay: Inhibition of HDAC11 (unknown origin)
Histone deacetylase 11, sequence (Q96DB2 whole entry): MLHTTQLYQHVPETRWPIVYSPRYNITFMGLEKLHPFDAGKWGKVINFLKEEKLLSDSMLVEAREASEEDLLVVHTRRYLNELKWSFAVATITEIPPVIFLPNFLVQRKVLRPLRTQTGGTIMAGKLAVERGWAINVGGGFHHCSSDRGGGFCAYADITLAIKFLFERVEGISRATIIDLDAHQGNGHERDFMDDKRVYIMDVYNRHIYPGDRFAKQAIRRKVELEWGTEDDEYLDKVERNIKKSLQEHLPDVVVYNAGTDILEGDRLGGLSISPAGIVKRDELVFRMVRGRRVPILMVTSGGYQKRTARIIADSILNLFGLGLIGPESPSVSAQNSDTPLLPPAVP

[9] = target: Histone deacetylase 5 (Homo sapiens, UniProt Q9UQL6); assay: Inhibition of HDAC5 (unknown origin)
[10] = system: PANC-1; assay: Induction of apoptosis in human PANC-1 cells assessed as increase in cleaved PARP expression level at 2 uM incubated for 24 hrs by Western blot analysis; type: functional, cell-based
[11] = system: NCI-H1975; assay: cells; conditions: Homo sapiens, NCI-H1975, 72 h
Description: Cytotoxicity against human NCI-H1975 cells assessed as inhibition of cell growth incubated for 72 hrs by MTT assay

[12] = target: Histone deacetylase 1 (Homo sapiens, UniProt Q13547); assay: Inhibition of HDAC1 (unknown origin)
Histone deacetylase 1, sequence (Q13547 whole entry): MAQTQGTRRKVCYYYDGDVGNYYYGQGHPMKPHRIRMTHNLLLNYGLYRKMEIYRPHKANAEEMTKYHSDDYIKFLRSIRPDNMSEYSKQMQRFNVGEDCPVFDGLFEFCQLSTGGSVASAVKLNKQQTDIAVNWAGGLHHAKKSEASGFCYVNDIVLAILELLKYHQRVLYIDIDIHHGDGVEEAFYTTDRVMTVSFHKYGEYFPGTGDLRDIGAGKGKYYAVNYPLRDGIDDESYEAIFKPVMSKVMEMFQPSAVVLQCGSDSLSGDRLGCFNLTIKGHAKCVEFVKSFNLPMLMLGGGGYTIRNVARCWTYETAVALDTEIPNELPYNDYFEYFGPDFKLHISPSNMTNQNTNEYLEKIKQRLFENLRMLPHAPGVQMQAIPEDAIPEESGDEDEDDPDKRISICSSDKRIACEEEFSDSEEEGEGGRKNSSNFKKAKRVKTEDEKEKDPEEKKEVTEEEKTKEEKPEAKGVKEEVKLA

[13] = target: Histone deacetylase 2 (Homo sapiens, UniProt Q92769); assay: Inhibition of HDAC2 (unknown origin)
Histone deacetylase 2, sequence (Q92769 whole entry): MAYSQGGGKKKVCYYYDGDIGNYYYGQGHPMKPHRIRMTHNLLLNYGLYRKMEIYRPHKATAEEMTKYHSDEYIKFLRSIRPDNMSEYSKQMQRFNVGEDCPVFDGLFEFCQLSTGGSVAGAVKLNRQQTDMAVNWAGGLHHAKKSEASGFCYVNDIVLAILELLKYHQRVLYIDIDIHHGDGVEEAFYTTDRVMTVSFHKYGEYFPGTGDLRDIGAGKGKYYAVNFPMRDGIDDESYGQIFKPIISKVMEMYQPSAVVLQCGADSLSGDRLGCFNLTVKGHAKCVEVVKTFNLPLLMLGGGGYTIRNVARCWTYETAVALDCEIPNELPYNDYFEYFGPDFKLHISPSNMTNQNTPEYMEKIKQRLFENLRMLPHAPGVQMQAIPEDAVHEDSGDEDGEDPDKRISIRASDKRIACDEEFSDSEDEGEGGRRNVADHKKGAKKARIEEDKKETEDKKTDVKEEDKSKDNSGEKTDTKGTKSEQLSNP

[14] = system: MCF7; assay: cells; conditions: Homo sapiens, MCF7, 72 h
Description: Cytotoxicity against human MCF7 cells assessed as inhibition of cell growth incubated for 72 hrs by MTT assay

[15] = system: PANC-1; assay: Induction of apoptosis in human PANC-1 cells assessed as increase in cleaved caspase-9 expression level at 2 uM incubated for 24 hrs by Western blot analysis; type: functional, cell-based
[16] = system: PANC-1; assay: Induction of apoptosis in human PANC-1 cells assessed as increase in cleaved caspase-3 expression level at 2 uM incubated for 24 hrs by Western blot analysis; type: functional, cell-based
[17] = target: Histone deacetylase 9 (Homo sapiens, UniProt Q9UKV0); assay: Inhibition of HDAC9 (unknown origin)
[18] = system: HT-29; assay: Induction of apoptosis in human HT-29 cells assessed as apoptotic ratio at 2 uM incubated for 24 hrs by flow cytometric analysis; type: functional
[19] = system: PANC-1; assay: Induction of apoptosis in human PANC-1 cells assessed as apoptotic cells at 2 uM incubated for 24 hrs by flow cytometric analysis relative to control; type: functional
[20] = target: Histone deacetylase 4 (Homo sapiens, UniProt P56524); assay: Inhibition of HDAC4 (unknown origin)
Histone deacetylase 4, sequence (P56524 whole entry): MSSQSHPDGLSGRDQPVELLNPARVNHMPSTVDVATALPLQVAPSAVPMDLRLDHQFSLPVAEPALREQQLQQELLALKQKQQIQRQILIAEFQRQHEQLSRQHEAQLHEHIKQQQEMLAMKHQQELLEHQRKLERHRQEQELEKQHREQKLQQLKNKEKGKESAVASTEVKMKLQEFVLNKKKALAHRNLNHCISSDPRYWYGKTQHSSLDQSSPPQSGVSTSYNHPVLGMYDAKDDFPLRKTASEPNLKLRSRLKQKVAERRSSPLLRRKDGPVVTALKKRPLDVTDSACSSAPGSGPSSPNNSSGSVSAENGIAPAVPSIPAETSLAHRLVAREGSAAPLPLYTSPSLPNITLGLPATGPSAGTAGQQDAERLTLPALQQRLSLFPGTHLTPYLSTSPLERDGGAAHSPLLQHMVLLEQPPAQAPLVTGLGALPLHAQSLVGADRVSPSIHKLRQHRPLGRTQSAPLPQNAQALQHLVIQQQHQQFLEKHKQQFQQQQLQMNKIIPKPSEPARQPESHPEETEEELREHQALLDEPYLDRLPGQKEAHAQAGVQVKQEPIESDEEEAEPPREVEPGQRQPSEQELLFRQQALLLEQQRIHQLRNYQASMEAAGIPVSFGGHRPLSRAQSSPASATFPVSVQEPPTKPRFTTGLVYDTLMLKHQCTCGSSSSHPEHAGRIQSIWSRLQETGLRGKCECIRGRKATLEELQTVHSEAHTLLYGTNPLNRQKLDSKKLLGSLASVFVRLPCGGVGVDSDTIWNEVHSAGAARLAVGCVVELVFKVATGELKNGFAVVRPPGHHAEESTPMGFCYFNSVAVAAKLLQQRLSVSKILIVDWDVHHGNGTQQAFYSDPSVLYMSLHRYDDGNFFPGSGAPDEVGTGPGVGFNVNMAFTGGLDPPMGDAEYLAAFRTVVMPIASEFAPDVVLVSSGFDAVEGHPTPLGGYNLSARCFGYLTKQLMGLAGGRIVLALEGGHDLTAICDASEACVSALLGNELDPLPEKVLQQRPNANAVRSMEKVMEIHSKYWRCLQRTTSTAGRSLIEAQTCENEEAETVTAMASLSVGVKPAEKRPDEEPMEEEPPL

[21] = system: HT-29; assay: Antitumor activity against human HT-29 cells xenografted in BALB/c nude mouse assessed as tumor growth inhibition at 7.5 mg/kg, ip administered once a day for 24 days relative to control; type: functional; conditions: HT-29, 576 h, time 24 day, read-out: TGI
[22] = target: Polyamine deacetylase HDAC10 (Homo sapiens, UniProt Q969S8); assay: Inhibition of HDAC10 (unknown origin)
Polyamine deacetylase HDAC10, sequence (Q969S8 whole entry): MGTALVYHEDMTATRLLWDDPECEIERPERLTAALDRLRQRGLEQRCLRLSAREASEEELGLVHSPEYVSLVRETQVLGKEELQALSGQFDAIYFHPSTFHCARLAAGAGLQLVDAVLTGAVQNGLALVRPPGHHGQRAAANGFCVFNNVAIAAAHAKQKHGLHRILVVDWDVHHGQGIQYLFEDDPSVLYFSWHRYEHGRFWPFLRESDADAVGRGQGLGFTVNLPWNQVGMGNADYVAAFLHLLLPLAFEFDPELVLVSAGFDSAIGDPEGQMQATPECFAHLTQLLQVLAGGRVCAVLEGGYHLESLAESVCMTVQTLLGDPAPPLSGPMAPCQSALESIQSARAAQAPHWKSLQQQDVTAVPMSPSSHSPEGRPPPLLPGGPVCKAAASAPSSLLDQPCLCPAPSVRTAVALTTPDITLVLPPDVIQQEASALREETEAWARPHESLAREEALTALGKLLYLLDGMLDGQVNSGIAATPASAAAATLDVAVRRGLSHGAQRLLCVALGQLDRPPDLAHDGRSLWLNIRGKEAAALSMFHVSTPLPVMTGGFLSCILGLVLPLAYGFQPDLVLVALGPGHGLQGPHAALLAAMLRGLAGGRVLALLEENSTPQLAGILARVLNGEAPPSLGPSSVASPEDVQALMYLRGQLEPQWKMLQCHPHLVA

[23] = system: PANC-1; assay: Induction of apoptosis in human PANC-1 cells assessed as increase in Bax expression at 2 uM incubated for 24 hrs by Western blot analysis; type: functional, cell-based
[24] = system: PANC-1; assay: Cell cycle arrest in human PANC-1 cells assessed as accumulation of cells at GO-G1 phase at 2 uM incubated for 24 hrs by PI/RNase staining based flow cytometric analysis; type: functional
[25] = system: L02; assay: cells; conditions: Homo sapiens, L02, 72 h
Description: Cytotoxicity against human L02 cells assessed as inhibition of cell growth incubated for 72 hrs by MTT assay

[26] = system: PANC-1; assay: Induction of apoptosis in human PANC-1 cells assessed as increase in Cytochrome C expression level at 2 uM incubated for 24 hrs by Western blot analysis; type: functional, cell-based
[27] = target: Histone deacetylase 8 (Homo sapiens, UniProt Q9BY41); assay: Inhibition of HDAC8 (unknown origin)
Histone deacetylase 8, sequence (Q9BY41 whole entry): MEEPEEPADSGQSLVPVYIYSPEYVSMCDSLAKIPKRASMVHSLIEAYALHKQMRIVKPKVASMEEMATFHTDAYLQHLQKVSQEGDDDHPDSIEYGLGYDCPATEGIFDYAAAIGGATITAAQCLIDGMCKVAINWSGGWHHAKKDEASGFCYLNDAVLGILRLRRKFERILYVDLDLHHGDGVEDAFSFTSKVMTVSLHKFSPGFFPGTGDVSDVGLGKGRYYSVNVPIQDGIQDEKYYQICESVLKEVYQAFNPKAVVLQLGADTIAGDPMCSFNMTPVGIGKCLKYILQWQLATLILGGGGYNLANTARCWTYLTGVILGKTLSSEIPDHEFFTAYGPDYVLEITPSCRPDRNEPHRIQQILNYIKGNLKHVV

[28] = target: Histone deacetylase 3 (Homo sapiens, UniProt O15379); assay: Inhibition of HDAC3 (unknown origin)
[29] = system: PANC-1; assay: cells; conditions: Homo sapiens, PANC-1, 72 h
Description: Cytotoxicity against human PANC-1 cells assessed as inhibition of cell growth incubated for 72 hrs by MTT assay

[30] = system: HepG2; assay: cells; conditions: Homo sapiens, HepG2, 72 h
Description: Cytotoxicity against human HepG2 cells assessed as inhibition of cell growth incubated for 72 hrs by MTT assay

[31] = target: Histone deacetylase 7 (Homo sapiens, UniProt Q8WUI4); assay: Inhibition of HDAC7 (unknown origin)
[32] = system: SGC-7901; assay: cells; conditions: Homo sapiens, SGC-7901, 72 h
Description: Cytotoxicity against human SGC-7901 cells assessed as inhibition of cell growth incubated for 72 hrs by MTT assay

IC50 [1]: 360 nM | IC50 [2]: 1150 nM | IC50 [3]: 370 nM | IC50 [5]: 150 nM | IC50 [6]: > 10 µM | IC50 [7]: 160 nM | IC50 [8]: > 10 µM | IC50 [9]: > 10 µM | IC50 [11]: 230 nM | IC50 [12]: > 10 µM | IC50 [13]: > 10 µM | IC50 [14]: 260 nM | IC50 [17]: > 10 µM | IC50 [20]: > 10 µM | IC50 [22]: > 10 µM | IC50 [27]: > 10 µM | IC50 [28]: > 10 µM | IC50 [29]: 260 nM | IC50 [30]: 1340 nM | IC50 [31]: > 10 µM | IC50 [32]: 250 nM
SMILES: COc1cc(OC)c(/C=C/S(=O)(=O)Cc2ccc(OC)c(NCC(=O)O)c2)c(OC)c1 [RIGOSERTIB]
inhibition in vivo at 7.5 mg/kg [4]: 77.9% | Activity [10]: Active | Activity [15]: Active | Activity [16]: Active | Activity [18]: 34.8% | Activity [19]: 41.4% | inhibition in vivo at 7.5 mg/kg [21]: 46% | Activity [23]: Active | Activity [24]: Active | IC50 [25]: > 40 µM | Activity [26]: Active
